Source: patent US20240140991A1, “ANTIBIOTIC NATURAL PRODUCT ANALOGUES” (THE QUEEN'S UNIVERSITY OF BELFAST, priority 2021, published 2024)
In brackets after ≈: the same amount, converted by molar mass. Positions of bridges follow the written chain, without caps; N, C: chain ends. Non-standard residues stand in square brackets, D forms with d. Residues, ends and D or L forms follow the SMILES beside them. *: point of attachment. Octanoyl(7-Me) = CC(C)CCCCCC(=O)*; dOrn = NCCC[C@@H](N)C(=O)O; Orn = NCCC[C@H](N)C(=O)O; Dap = NC[C@H](N)C(=O)O

How the values were obtained:
[1] = tested on: K. pneumoniae JS-123; assay type: cell-based, Klebsiella pneumoniae; settings: JS-123
Procedure, shortened: (§1)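 Broth microdilution in MHB per CLSI; inoculum 2×10^5 CFU mL^−1 from log-phase TSB cultures at OD600 0.5. Plates incubated 16 hours at 37° C with shaking at 220 rpm. MIC is the lowest concentration preventing visible growth.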

[2] = tested on: A. baumannii MDR; assay type: cell-based, Acinetobacter baumannii; settings: A. baumannii MDR clinical isolate
Procedure, shortened: as §1

[3] = tested on: Escherichia coli ATCC 25922; assay type: cell-based; settings: in vitro activity quoted in the in vivo section
Procedure, shortened: as §1

[4] = In vivo tolerability study; design: species or system mice (ICR, CD1); settings: subcutaneous, 3 doses at 8-h intervals, up to 40 mg/kg (total daily dose 120 mg/kg), naive mice
Protocol: Animal Strain: Mice used in these studies were supplied by Charles River (Margate UK) and were specific pathogen free. The strain of mice used was ICR (also known as CD1 Mice) which is a well characterized outbred murine strain. Mice (male) were 11-15 g on receipt and were allowed to acclimatise for at least 7 days.
Test compounds: Compound 6 (i.e. laterocidamide) was dissolved in water for injection in which it formed a clear colourless solution. Polymyxin B was dissolved in saline for injection to produce a clear colourless solution.
Tolerability study: The tolerability of compound 6 was assessed in the same mouse strain used for the efficacy studies. […] The mice used in the tolerability study were naïve and were not immunosuppressed or infected.

[5] = tested on: E. coli ATCC 25922; experiment: Mouse thigh abscess (neutropenic thigh infection) efficacy model; assay type: in vivo, mice (ICR, CD1)
Protocol: Efficacy study: The in vivo efficacy of compound 6 was assessed in a mouse thigh abscess model where both thighs of each mouse were infected with E. coli ATCC 25922 Immunosuppression: Mice were rendered neutropenic with subcutaneous injections of cyclophosphamide at 150 mg/kg 4 days before infection and 100 mg/kg 1 day before infection. The immunosuppression regime leads to neutropenia starting 24 h post administration of the first injection, which continues throughout the study.
Infection: The bacterial strain used was E. coli ATCC 25922. An aliquot of a previously prepared frozen stock of the strain was thawed and diluted in sterile PBS to the desired inoculum just prior to infection. […]
Endpoints: 1 h and 20.5 (planned 25) h post-infection, the clinical condition of all animals was assessed prior to humane euthanasia using pentobarbitone overdose, and the thighs were removed and weighed. Thigh samples were homogenized in 3 mL ice cold sterile PBS; the homogenates were quantitatively cultured onto CLED agar and incubated at 37° C. for 18-24 h before colonies were counted.
Data analysis: The data from the culture burdens were analysed using appropriate non-parametric statistical models (Kruskal-Wallis using Conover-Inman to make all pairwise comparisons between groups) with StatsDirect software v. […]

[6] = tested on: P. aeruginosa M-120; assay type: cell-based, Pseudomonas aeruginosa; settings: M-120
Procedure, shortened: as §1

[7] = tested on: HepG2 cells; experiment: Cytotoxicity MTT assay; settings: HepG2, 128 μg/mL, 24 h
Protocol: In addition to a single vehicle control, compounds (diluted from DMSO stock) were added to each well to obtain in a final 128 μg/mL concentration (max. final DMSO concentration 0.5%) for all compounds except for oritavancin which was administered at 50 μM. Incubation was done for 24 h at 37° C., 7% CO2. After the incubation, MTT was added to each well at a final concentration of 0.40 mg/mL. The plates were then incubated for 2 h at 37° C., 7% CO2. Medium was carefully removed via suction, and purple formazan crystals were resuspended in 100 μL DMSO. Absorbance was read at 570 nm using a Clariostar plate reader. The data was then analysed with GraphPad Prism software. Technical triplicates for each condition were used, along with biological duplicates.

CC[C@H](C)[C@@H]1NC(=O)[C@@H](NC(=O)[C@H](Cc2c[nH]c3ccccc23)NC(=O)[C@@H](CCCN)NC(=O)CNC(=O)[C@H](CCCN)NC(=O)[C@@H](CCCN)NC(=O)[C@@H](Cc2c[nH]c3ccccc23)NC(=O)[C@@H](Cc2ccc(O)cc2)NC(=O)[C@@H](CO)NC(=O)CCCCCC(C)C)CNC(=O)CNC(=O)CNC(=O)[C@H](CC(N)=O)NC1=O [Laterocidamide, laterocidamide] ({Octanoyl(7-Me)}-[dS][dY][dW][dOrn][Orn]G[dOrn]W[Dap]INGG; lactam 9-C)
Minimum inhibitory concentration (MIC) [1]: ≤0.5 µg/mL
Minimum inhibitory concentration (MIC) [2]: 4 µg/mL (≈ 2.52 µM)
MIC values against E. coli ATCC 25922 [3]: 1 µg/mL (≈ 0.629 µM)
tolerability ([4]; listed as Compound 6): good tolerability
tolerability ([4]; listed as compound 6): well tolerated
reduction in bacterial load relative to the untreated group ([5]; 40 mg/kg SC q8h, neutropenic mice, thigh burden): ~5 log
dose response of thigh burden ([5]; 10, 20 and 40 mg/kg SC q8h): clear dose response
Minimum inhibitory concentration (MIC) [6]: 2 to 4 µg/mL
cytotoxicity / cell viability [7]: completely non-toxic
cytotoxicity / cell viability ([7]; listed as compound 6): low cytotoxicity
